The values that follow are results of earlier work, collected in patent publication US20260232577A1, “A MACROLIDE FOR USE IN A METHOD OF PREVENTING OR TREATING AN IMMUNOLOGICAL DISEASE OR DISORDER” (Nucleus Medical GmbH, priority 2023, published 2026).

`C=CC[C@@H]1/C=C(\C)C[C@H](C)C[C@H](OC)[C@H]2O[C@@](O)(C(=O)C(=O)N3CCCC[C@H]3C(=O)O[C@H](/C(C)=C/[C@@H]3CC[C@@H](O)[C@H](OC)C3)[C@H](C)[C@@H](O)CC1=O)[C@H](C)C[C@@H]2OC` [tacrolimus]: under “after oral administration, international literature”, the bioavailability variability is given as 4-90%. Besides, the “blood level fluctuations, variation range” value (after oral application, internationally described) is given as “more than 80%”. Also, the “oral bioavailability on average” value (limited by presystemic metabolism in the GI tract) is on record as ~ 25%.
